Literature values as cited in US8523569B2, “Controlled release local anesthetic for post dental surgery and method of use” (priority 2007, dated 2013).

Conditions: immediate release vasoconstrictor, known to the art

In the case of `CNC[C@H](O)c1ccc(O)c(O)c1` [epinephrine], the “prolongation of local anesthetic activity, at best” value is listed as at most 1 h.
